Assay results reported in patent publication US10882856B2 (BeiGene, Ltd., priority 2017, dated 2021).
Where two headings read alike, the source gives them in different places.

Tests used:
IDO1 [1] = target: T1, IDO1 (Homo sapiens, UniProt P14902); experiment: IDO1 enzymatic assay; format: biochemical; set-up: His tag (N); made in house; host or cells: E. coli
Outline: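 Assays were run in 50 mM potassium phosphate pH 7.5 with 0.1% BSA for 1.5 hours at 24 °C. Each contained 50 nM E. coli-purified, N-terminally His-tagged IDO1, compound, 1.3 mM D-tryptophan, 5 mM L-ascorbic acid, methylene blue and 0.4 mg/mL catalase. IC50 was calculated from remaining enzyme activity across a rising compound series, with activity taken as the slope of N'-formylkynurenine formation read continuously at 321 nm for 1 hour.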

[2] = target: T2, cellular TDO2 in HEK293-TDO2 cells (Homo sapiens, UniProt P48775); experiment: 293-TDO2 cell-based assay (Kyn colorimetric); conditions: 48 hours of incubation
T2 construct: expressed in transfected cells; host or cells: HEK293 (ATCC), stably transfected
T2 sequence (P48775 whole entry): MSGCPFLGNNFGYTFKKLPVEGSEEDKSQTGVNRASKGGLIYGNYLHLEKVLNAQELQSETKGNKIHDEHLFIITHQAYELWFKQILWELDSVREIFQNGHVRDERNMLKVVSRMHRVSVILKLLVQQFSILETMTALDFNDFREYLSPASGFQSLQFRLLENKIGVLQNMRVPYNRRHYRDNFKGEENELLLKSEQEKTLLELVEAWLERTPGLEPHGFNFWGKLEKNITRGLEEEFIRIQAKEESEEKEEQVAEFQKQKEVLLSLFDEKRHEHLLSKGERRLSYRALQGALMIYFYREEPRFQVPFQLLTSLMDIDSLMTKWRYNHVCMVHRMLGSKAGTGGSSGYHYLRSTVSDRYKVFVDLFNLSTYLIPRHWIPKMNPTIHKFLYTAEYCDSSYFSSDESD
Experimental: The inhibitory activity of TDO2 inhibitors is determined by using a colorimetric reaction to measure Kyn generated from L-Trp (L-Tryptophon) oxidation by cellular TDO2 in HEK293-TDO2 cells stably transfected with a plasmid expression of Tryptophan 2,3-dioxygenase (for short, 293-TDO2).
HEK293 cells were obtained from the American Type Culture Collection and 293-TDO2 were recovered in 10% FBS-containing phenol red-free DMEM medium. Cells were plated onto a 96-well plate (100 μl/well) at 10000 cells per well and kept at 37° C. in a humidified incubator supplied with 5% CO2. 4 hours later, Compounds at different concentrations diluted in dimethylsulfoxide (DMSO) were added to plate. Cells were kept at 37° C. in a humidified incubator supplied with 5% CO2. After 48 hours of incubation, 100 μl supernatant from each well was removed to a new plate. The protein in the medium was precipitated with the addition of 8 μl 6N trichloroacetic acid. The plate was incubated at 60° C. for 30 minutes and then centrifugation at 2500 rpm for 10 minutes to remove sediments. 80 μl supernatants were carefully removed to a new clean plate and added with an equal volume of 2% 4-(Dimethylamino) benzaldehyde (D2004, sigma) dissolved in glacial acetic acid. The absorbance at 480 nm wavelength derived from Kyn was measured using a PHERAstar FS plate reader (BMG LABTECH). The IC50 for each compound was derived from fitting the dose-response data to the four-parameter logistic model by using XLfit software (IDBS).

IDO1 [3] = target: T1, IDO1; experiment: Hela cell-based IDO1 assay; conditions: Hela cells
Outline: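 HeLa cells were seeded at 8000 per well in 96-well plates in phenol red-free DMEM with 10% FBS. After 4 hours, DMSO-diluted compound dilutions were added with IFN-γ (final 100 ng/mL) and 0.4 mM L-Trp, and cells were kept 48 hours at 37 °C, 5% CO2. Supernatant was deproteinised with trichloroacetic acid, and kynurenine was measured at 480 nm after adding 2% 4-(dimethylamino)benzaldehyde. Potency came from four-parameter logistic fits in XLfit.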

T1 sequence (P14902 whole entry): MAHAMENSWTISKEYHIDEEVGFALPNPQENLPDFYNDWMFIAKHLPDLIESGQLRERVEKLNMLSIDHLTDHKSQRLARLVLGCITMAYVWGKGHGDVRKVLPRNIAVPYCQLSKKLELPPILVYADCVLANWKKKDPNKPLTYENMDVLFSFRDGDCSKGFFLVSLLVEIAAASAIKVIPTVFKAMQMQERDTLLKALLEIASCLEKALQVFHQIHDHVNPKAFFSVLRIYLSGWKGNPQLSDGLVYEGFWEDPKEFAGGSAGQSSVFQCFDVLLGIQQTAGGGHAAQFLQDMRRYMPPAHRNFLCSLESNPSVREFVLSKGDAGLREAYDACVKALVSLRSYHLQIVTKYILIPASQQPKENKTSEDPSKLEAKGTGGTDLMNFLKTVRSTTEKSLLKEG

Row | SMILES | IC50 (IDO1 [1]; read-out: Enzyme IC50 IDO1) | EC50 [2] | EC50 (IDO1 [3]) | IC50 (IDO1 [1]; heading: Enzyme IC50 IDO1)
1 | OC(c1c(C2CC2)ccn2cncc12)C1CCN(c2cccnc2)CC1 (stereo not drawn) [Example C148, (7-cyclopropylimidazo[1,5-a]pyridin-8-yl)(1-(pyridin-3-yl)piperidin-4-yl)methanol] | 74 nM | > 10000 nM | 1300 nM | –
2 | OC(c1c(C2CC2)ccc2cncn12)C1CCN(c2ccc(F)c3ncccc23)CC1 (stereo not drawn) [Example D175, (6-cyclopropylimidazo[1,5-a]pyridin-5-yl)(1-(8-fluoroquinolin-5-yl)piperidin-4-yl)methanol] | 22 nM | > 10000 nM | 21 nM | –
3 | O[C@@H](c1c(C2CC2)ccc2cncn12)C1CCN(c2ccccc2)CC1 (single isomer, unassigned) [Example D170b] | 8820 nM | > 10000 nM | 7940 nM | –
4 | CNC(=O)c1ccc(C2CCC(C(O)c3c(C4CC4)ccc4cncn34)CC2)cc1 (stereo not drawn) [Example D124, 4-(4-((6-cyclopropylimidazo[1,5-a]pyridin-5-yl)(hydroxy)methyl)cyclohexyl)-N-methylbenzamide] | 22 nM | > 10000 nM | 188 nM | –
5 | CC(C)c1ccc2cncn2c1C(O)C1CCC(c2cccc(F)c2)CC1 (stereo not drawn) [Example D167, (4-(3-fluorophenyl)cyclohexyl)(6-isopropylimidazo[1,5-a]pyridin-5-yl)methanol] | 69 nM | > 10000 nM | 40 nM | –
6 | OC(c1c(C2CC2)ccc2cncn12)C1CCC(c2cccc(F)c2)CC1 (stereo not drawn) [Example D156, (6-cyclopropylimidazo[1,5-a]pyridin-5-yl)(4-(3-fluorophenyl)cyclohexyl)methanol] | 57 nM | > 10000 nM | 75 nM | –
7 | OC(c1c(C2CC2)ccc2cncn12)C1CCC(c2csc3ccccc23)CC1 (stereo not drawn) [Example D155, (4-(benzo[b]thiophen-3-yl)cyclohexyl)(6-cyclopropylimidazo[1,5-a]pyridin-5-yl)methanol] | 70 nM | > 10000 nM | 87 nM | –
8 | OC(c1c(C2CC2)ccn2cncc12)C1CCC(c2ccc(OC3COC3)cc2)CC1 (stereo not drawn) [Example C117, (7-cyclopropylimidazo[1,5-a]pyridin-8-yl)(4-(4-(oxetan-3-yloxy)phenyl)cyclohexyl)methanol] | 35 nM | > 10000 nM | 184 nM | –
9 | OC(c1cc(C2CC2)cc2cncn12)C1CCC(c2ccc(Cl)cc2)CC1 (stereo not drawn) [Example E102, (4-(4-chlorophenyl)cyclohexyl)(7-cyclopropylimidazo[1,5-a]pyridin-5-yl)methanol] | 270 nM | > 10000 nM | 4840 nM | –
10 | Oc1ccc([C@H]2CC[C@H](C(O)c3c(C4CC4)ccn4cncc34)CC2)cc1 (single isomer, unassigned) [Example C104b] | 5200 nM | > 10000 nM | > 10000 nM | –
11 | COc1ccc([C@H]2CC[C@H]([C@@H](O)c3c(C4CC4)ccc4cncn34)CC2)cc1 (single isomer, unassigned) [Example D102b] | – | > 10000 nM | 6770 nM | > 10000 nM
12 | OC(c1c(C2CC2)ccn2cncc12)C1CCC(c2ccc(F)cc2)CC1 (racemic) [Example C107, (7-cyclopropylimidazo[1,5-a]pyridin-8-yl)(4-(4-fluorophenyl)cyclohexyl)methanol] | 65 nM | > 10000 nM | 157 nM | –
13 | O[C@@H](c1c(C2CC2)ccc2cncn12)[C@H]1CC[C@H](c2ccc(F)cc2F)CC1 (single isomer, unassigned) [Example D127b] | 2700 nM | > 10000 nM | 4620 nM | –
14 | NC(=O)c1ccc([C@H]2CC[C@H]([C@H](O)c3c(C4CC4)ccn4cncc34)CC2)cc1 [Example C124] | 56 nM | > 10000 nM | 236 nM | –
15 | OC(c1c(C2CC2)ccc2cncn12)[C@H]1CC[C@H](c2ccc(Cl)cc2)CC1 (single isomer, unassigned) [Example D103b] | 7800 nM | > 10000 nM | 6880 nM | –
16 | OC(c1c(C2CC2)ccn2cncc12)C1CCC(c2ccnc3c(F)cccc23)CC1 (stereo not drawn) [Example C129, (7-cyclopropylimidazo[1,5-a]pyridin-8-yl)(4-(8-fluoroquinolin-4-yl)cyclohexyl)methanol] | 33 nM | > 10000 nM | 51 nM | –

Row | SMILES | IC50 (IDO1 [1]; read-out: Enzyme IC50 IDO1) | EC50 [2] | EC50 (IDO1 [3]) | IC50 (IDO1 [1]; heading: Enzyme IC50 IDO1)
17 | OC(c1c(C2CC2)ccc2cncn12)C1CCC(c2ccc3ncccc3c2)CC1 (stereo not drawn) [Example D157, (6-cyclopropylimidazo[1,5-a]pyridin-5-yl)(4-(quinolin-6-yl)cyclohexyl)methanol] | 31 nM | > 10000 nM | 75 nM | –
18 | COc1ccc(C2CCC(C(O)c3c(C4CC4)ccn4cncc34)CC2)cc1 (racemic) [Example C101, (7-cyclopropylimidazo[1,5-a]pyridin-8-yl)(4-(4-methoxyphenyl)cyclohexyl)methanol] | 41 nM | > 10000 nM | 200 nM | –
19 | Oc1ccc(C2CCC(C(O)c3c(C4CC4)ccc4cncn34)CC2)c2ccccc12 (stereo not drawn) [Example D138, (6-cyclopropylimidazo[1,5-a]pyridin-5-yl)(4-(4-hydroxynaphthalen-1-yl)cyclohexyl)methanol] | 62 nM | > 10000 nM | 583 nM | –
20 | OC(c1c(C2CC2)ccn2cncc12)C1CCN(c2ccc(F)c(F)c2)CC1 (stereo not drawn) [Example C141, (7-cyclopropylimidazo[1,5-a]pyridin-8-yl)(1-(3,4-difluorophenyl)piperidin-4-yl)methanol] | 76 nM | > 10000 nM | 105 nM | –
21 | OC(c1c(C2CC2)ccc2cncn12)C1CCN(c2ccc(F)cc2)CC1 (stereo not drawn) [Example D171, (6-cyclopropylimidazo[1,5-a]pyridin-5-yl)(1-(4-fluorophenyl)piperidin-4-yl)methanol] | 22 nM | > 10000 nM | 36 nM | –
22 | Cc1ccccc1C1CCC(C(O)c2c(C3CC3)ccn3cncc23)CC1 (stereo not drawn) [Example C112, (7-cyclopropylimidazo[1,5-a]pyridin-8-yl)(4-(o-tolyl)cyclohexyl)methanol] | 92 nM | > 10000 nM | 285 nM | –
23 | NS(=O)(=O)Nc1ccc([C@H]2CC[C@H]([C@H](O)c3c(C4CC4)ccc4cncn34)CC2)cc1 [Example D165, 1-(4-((1 S,4r)-4-((S)-(6-cyclopropylimidazo[1,5-a]pyridin-5-yl)(hydroxy)methyl)cyclohexyl)phenyl) sulfuric diamide] | 28 nM | > 10000 nM | 344 nM | –
24 | O[C@H](c1c(C2CC2)ccc2cncn12)C1CCN(c2cccc(F)c2)CC1 [Example D172a] | 14 nM | > 10000 nM | 23 nM | –
25 | O[C@@H](c1c(C2CC2)ccn2cncc12)[C@H]1CC[C@H](c2ccc(OC3COC3)cc2)CC1 (single isomer, unassigned) [Example C117b] | 1100 nM | > 10000 nM | > 10000 nM | –
26 | CC(=O)c1ccc(C2CCC(C(O)c3c(C4CC4)ccc4cncn34)CC2)cc1 (stereo not drawn) [Example D158] | 58 nM | > 10000 nM | 836 nM | –
27 | OC(c1c(C2CC2)ccc2cncn12)C1CCN(c2cccc(F)c2)CC1 (stereo not drawn) [Example D172] | 28 nM | > 10000 nM | 58 nM | –
28 | OC(c1c(C2CC2)ccc2cncn12)[C@H]1CC[C@H](c2cccc(F)c2F)CC1 (single isomer, unassigned) [Example D132a] | 21 nM | > 10000 nM | 113 nM | –
29 | Nc1ccc([C@H]2CC[C@H]([C@H](O)c3c(C4CC4)ccc4cncn34)CC2)cc1 (single isomer, unassigned) [Example D122a] | 18 nM | > 10000 nM | 103 nM | –
30 | Oc1cccc(C2CCC(C(O)c3c(C4CC4)ccc4cncn34)CC2)c1 (stereo not drawn) [Example D142, 3-(4-((6-cyclopropylimidazo[1,5-a]pyridin-5-yl)(hydroxy)methyl)cyclohexyl)phenol] | 32 nM | > 10000 nM | 40 nM | –
31 | COc1cccc(C2CCC(C(O)c3c(C4CC4)ccc4cncn34)CC2)c1 (stereo not drawn) [Example D143, (6-cyclopropylimidazo[1,5-a]pyridin-5-yl)(4-(3-methoxyphenyl)cyclohexyl)methanol] | 33 nM | > 10000 nM | 62 nM | –
